Results taken from patent US20240368168A1, “SARM1 ENZYME ACTIVITY INHIBITOR AND APPLICATION THEREOF” (ARTIVILA BIOPHARMA, priority 2021, published 2024).
Counter-ions that a name gives are not always drawn.

Target: T1, dN-SARM1 protein (Homo sapiens, UniProt Q6SZW1)
T1 construct: the N-terminal mitochondrial localization signal peptide of SARM1 was removed
T1 sequence (Q6SZW1 28-724): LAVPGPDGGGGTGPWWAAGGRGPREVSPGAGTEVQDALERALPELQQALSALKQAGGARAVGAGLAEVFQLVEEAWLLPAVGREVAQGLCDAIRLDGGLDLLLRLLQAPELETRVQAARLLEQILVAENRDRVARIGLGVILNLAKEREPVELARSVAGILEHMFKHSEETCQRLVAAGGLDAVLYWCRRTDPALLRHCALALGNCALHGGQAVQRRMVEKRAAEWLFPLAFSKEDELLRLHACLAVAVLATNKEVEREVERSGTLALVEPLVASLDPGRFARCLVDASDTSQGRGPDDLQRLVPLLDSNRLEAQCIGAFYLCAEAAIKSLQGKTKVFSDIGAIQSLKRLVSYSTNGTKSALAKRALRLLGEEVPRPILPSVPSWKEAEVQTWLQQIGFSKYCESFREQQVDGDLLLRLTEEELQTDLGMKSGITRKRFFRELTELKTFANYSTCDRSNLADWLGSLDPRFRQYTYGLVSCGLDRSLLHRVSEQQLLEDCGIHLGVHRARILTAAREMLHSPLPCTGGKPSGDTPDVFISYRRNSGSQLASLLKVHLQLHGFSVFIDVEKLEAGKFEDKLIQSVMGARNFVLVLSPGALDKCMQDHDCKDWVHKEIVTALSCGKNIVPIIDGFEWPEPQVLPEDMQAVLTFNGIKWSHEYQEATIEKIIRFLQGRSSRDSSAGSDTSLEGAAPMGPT
Test: In vitro biochemical assay for inhibiting SARM1 enzymatic activity (IC50), PC6 fluorescence method
Details: 50 μM NAD, 50 μM PC6, 50 μM NMN activator
Procedure: 200 μM compound was first added to a solution of 0.05 μg/ml dN-SARM1 in 50 mM Tris-HCl (pH 7.5). Half of the mixture was added to an equal volume of a solution of 0.05 μg/ml dN-SARM1 in 50 mM Tris-HCl (pH 7.5) and mixed. The drug was diluted 6 times in this manner, with the final concentrations being 200, 100, 50, 25, 12.5, 6.25, 3.125 μM, or 200, 50, 12.5, 3.125, 0.78, 0.195, 0.049 μM, respectively. The protein without inhibitors added, being used as control group, was incubated at room temperature for 10 minutes.
50 μM NAD, 50 μM PC6 as substrate and 50 μM NMN as activator were added to the dN-SARM1 protein incubated with the inhibitor and reacted for 30 minutes at room temperature. The concentration of each component was the final concentration in the reaction system.
During the reaction, PC6 fluorescence spectrum dynamics were detected by a microplate reader, wherein the excitation wavelength and emission wavelength for detection were 390 nm and 520 nm, respectively. Finally, the reaction rate was used to express the activity of the protein, and the half inhibitory concentration was calculated. The higher the reaction rate, the stronger the protein activity, and the lower the inhibitory efficiency of the compound.
The dose curve of compounds inhibiting SARM1 enzymatic activity was determined using the above method.

For `CNc1ccc2ncc(-c3cncc4[nH]ccc34)n2c1` [Compound 258], the IC50 was < 1 µM.
With `CNc1ccc2ncc(-c3cccc4c(I)n[nH]c34)n2c1` [Compound 210, 3-(3-iodo-1H-indazol-7-yl)-N-methylimidazol[1,2-a]pyridin-6-amine hydrochloride] the IC50 was 1 to 10 µM.
In the case of `CNc1ccc2ncc(-c3cccc(S(=O)(=O)NC)c3)n2c1` [Compound 60, N-methyl-3-(6-(methylamino)imidazo[1,2-a]pyridin-3-yl)benzenesulfonamide], the IC50 is reported as 1 to 10 µM.
For `CN(C(=O)OC(C)(C)C)c1ccc2ncc(-c3cccc4cnccc34)n2c1` [Compound 263], the IC50 was < 1 µM.
`COC(=O)c1ccn2c(-c3ccccc3)cnc2c1` [Compound 23] was tested, and the IC50 was 1 to 10 µM.
Compound `CNc1ccc2ncc(-c3ccccn3)n2c1` [Compound 76] has an IC50 of 1 to 10 µM.
Work on `CNc1ccc2ncc(-c3cccc4c3CC(=O)N4C)n2c1` [Compound 296] yielded an IC50 of 1 to 10 µM.
Compound `CNc1ccc2ncc(-c3ccncc3)n2c1` [Compound 74] has an IC50 of 1 to 10 µM.
In the case of `Ic1cnc2ccc(-n3cccc3)cn12` [Compound 203], the IC50 is reported as < 1 µM.
Compound `O=C(Cc1ccc(Cl)cc1)Nc1ccn2c(-c3ccncc3)cnc2c1` [Compound 222] has an IC50 of 1 to 10 µM.
`CNc1ccc2ncc(-c3ccc4cc[nH]c4n3)n2c1` [Compound 192] was tested, and the IC50 was 1 to 10 µM.
In the case of `CN(c1ccc2ncc(-c3ccccc3)n2c1)S(C)(=O)=O` [Compound 91, N-methyl-N-(3-phenylimidazo[1,2-a]pyridin-6-yl)methanesulfonamide], the IC50 is reported as 1 to 10 µM.
With `CNc1ccc2ncc(-c3ccnnc3)n2c1` [Compound 186] the IC50 was 1 to 10 µM.
`CC(=O)N(C)c1ccc2ncc(-c3cccs3)n2c1` [Compound 43] showed an IC50 of 1 to 10 µM.
In the case of `CNc1ccc2ncc(-c3cccc4cnccc34)n2c1` [Compound 264], the IC50 is reported as < 1 µM.
Compound `CNc1ccc2ncc(-c3cccc(C(N)=O)c3)n2c1` [Compound 64] has an IC50 of 1 to 10 µM.
For `CNc1ccc2ncc(-c3ccc4ccncc4c3)n2c1` [Compound 271], the IC50 was < 1 µM.
Compound `COC(=O)c1cccc(-c2cnc3ccc(N(C)C(C)=O)cn23)c1` [Compound 308] has an IC50 of 1 to 10 µM.
`CNc1ccc2ncc(-c3cccc4c3C(=O)NC4)n2c1` [Compound 165] was tested, and the IC50 was < 1 µM.
For `CC(C)(C)OC(=O)N(CCCc1ccccc1)c1ccc2ncc(-c3cccc(NC(=O)C4CCOCC4)c3)n2c1` [Compound 217], the IC50 was 1 to 10 µM.
In the case of `CN(C(=O)OC(C)(C)C)c1ccc2ncc(C3=CCCCC3)n2c1` [Compound 83], the IC50 is reported as 1 to 10 µM.
For `CNc1ccc2ncc(-c3ccc(NC(=O)C4CCOCC4)cn3)n2c1` [Compound 193], the IC50 was 1 to 10 µM.
In the case of `CNc1ccc2ncc(-c3cncc4[nH]cc(I)c34)n2c1` [Compound 209], the IC50 is reported as 1 to 10 µM.
`O=S1(=O)NCCOCCNc2ccc3ncc(n3c2)-c2cccc1c2` [Compound 81, (E)-7-oxa-3-thia-4,10-diaza-1(3,6)-imidazo[1,2-a]pyridine-2(1,3)-benzocyclodecane 3,3-dioxide] was tested, and the IC50 was 1 to 10 µM.
In the case of `c1cc(-c2cnc3ccc(-n4cccn4)cn23)c2cc[nH]c2c1` [Compound 202, 3-(1H-indol-4-yl)-6-(1H-pyrazol-1-yl)imidazo[1,2-a]pyridine], the IC50 is reported as 1 to 10 µM.
Work on `COc1ccc2ncc(Nc3ccccc3)n2c1` [Compound 82, 6-methoxy-N-phenylimidazo[1,2-a]pyridin-3-amine] yielded an IC50 of 1 to 10 µM.
In the case of `Brc1cnc2ccc(NC3CCOC3)cn12` (stereo not shown) [Compound 86, 3-bromo-N-(tetrahydrofuran-3-yl)imidazo[1,2-a]pyridin-6-amine], the IC50 is reported as < 1 µM.
With `CNc1ccc2ncc(-c3ccnc4[nH]ccc34)n2c1` [Compound 166] the IC50 was < 1 µM.
Compound `CC(=O)N(C)c1ccc2ncc(-c3ccccc3Cl)n2c1` [Compound 92, N-(3-(2-chlorophenyl)imidazo[1,2-a]pyridin-6-yl)-N-methylacetamide] has an IC50 of 1 to 10 µM.
With `CN(C(=O)OC(C)(C)C)c1ccc2ncc(-c3ccc4c(c3)CNC4=O)n2c1` [Compound 265] the IC50 was < 1 µM.
`CNc1ccc2ncc(-c3cncc4ccccc34)n2c1` [Compound 269] was tested, and the IC50 was 1 to 10 µM.
